What was measured:
[1] = Liquid; for mass density: Vibrating tube method; for vapor or sublimation pressure: Ebulliometric method (Recirculating still)
[2] = xn = mol fraction of the nth substance listed; conditions: Liquid, Vibrating tube method, x2 = 0

CC12CCC(CC1)C(C)(C)O2 [1,3,3-trimethyl-2-oxabicyclo[2.2.2]octane]
mass density [kg/m3], [1]
Conditions	20000 kPa	25000 kPa	30000 kPa	35000 kPa	40000 kPa
283.15 K	945.9	949.1	952	954.9	957.6
298.15 K	934.1	937.4	940.5	943.4	946.4
313.15 K	922.3	925.8	929.1	932.4	935.5
328.15 K	910.6	914.3	917.9	921.3	924.7

[1]
Conditions	vapor or sublimation pressure [kPa]
326.65 K	1.33
341.55 K	2.67
357.25 K	5.33
363.45 K	6.67
381.45 K	13.33
392.75 K	20
401.75 K	26.66
408.65 K	33.33
414.65 K	40
419.95 K	46.66
424.65 K	53.33
428.85 K	60
432.75 K	66.66
436.35 K	73.33
439.75 K	79.99
442.85 K	86.66
445.85 K	93.33
448.65 K	99.61
449.15 K	101.33

CCCO [propan-1-ol]
mass density [kg/m3], [1]
Conditions	20000 kPa	25000 kPa	30000 kPa	35000 kPa	40000 kPa
283.15 K	825.1	828.4	831.5	834.5	837.4
298.15 K	814.2	817.6	820.9	824	827.1
313.15 K	803.1	806.9	810.4	813.7	817
328.15 K	792	795.8	799.6	803.1	806.6

[1]
Conditions	vapor or sublimation pressure [kPa]
319.65 K	10
327.25 K	15
332.95 K	20
337.45 K	25
341.25 K	30
343.55 K	33.33
344.65 K	35
347.65 K	40
350.35 K	45
352.75 K	50
355.05 K	55
357.05 K	60
359.05 K	65
359.65 K	66.66
360.85 K	70
362.55 K	75
364.15 K	80
365.65 K	85
367.15 K	90
370.05 K	101.33

CCCO [propan-1-ol] + CC12CCC(CC1)C(C)(C)O2
mass density [kg/m3], [2]
Conditions	20000 kPa	25000 kPa	30000 kPa	35000 kPa	40000 kPa
283.15 K	825.1	828.4	831.5	834.5	837.4
298.15 K	814.2	817.6	820.9	824	827.1
313.15 K	803.1	806.9	810.4	813.7	817
328.15 K	792	795.8	799.6	803.1	806.6
